Source: PubChem BioAssay AID1918934 (Molecular Pharmacology Branch, DTP, NCI, 2023)

System: 292921-168-R-J2-PDC complex spheroid viability
Test: Anticancer human tumor 292921-168-R-J2-PDC patient-derived pancreatic carcinoma cell line growth inhibition
Details: for IC50: curve of first compound; for viability, T/C: stronger effect = lower value
Method in brief: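 Multicellular complex spheroids of tumor cells with human endothelial cells (HUVEC) and mesenchymal stem cells; the LSD1 inhibitor iadademstat was combined with standard-of-care or investigational agents. Top concentration at or near clinical Cmax, half-log dilutions; final DMSO ≤0.25%.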

[1] = second compound 0.1 µM, first compound 0.0316 µM
[2] = second compound 0.1 µM, first compound 0.1 µM
[3] = second compound 0.1 µM, first compound 0.316 µM
[4] = second compound 0.1 µM, first compound 1 µM
[5] = second compound 0.1 µM, first compound 3.16 µM
[6] = second compound 0.1 µM, first compound 10 µM
[7] = second compound 0.316 µM, first compound 0.0316 µM
[8] = second compound 0.316 µM, first compound 0.1 µM
[9] = second compound 0.316 µM, first compound 0.316 µM
[10] = second compound 0.316 µM, first compound 1 µM
[11] = second compound 0.316 µM, first compound 3.16 µM
[12] = second compound 0.316 µM, first compound 10 µM
[13] = second compound 1 µM, first compound 0.0316 µM
[14] = second compound 1 µM, first compound 0.1 µM
[15] = second compound 1 µM, first compound 0.316 µM
[16] = second compound 1 µM, first compound 1 µM
[17] = second compound 1 µM, first compound 3.16 µM
[18] = second compound 1 µM, first compound 10 µM
[19] = second compound 3.16 µM, first compound 0.0316 µM
[20] = second compound 3.16 µM, first compound 0.1 µM
[21] = second compound 3.16 µM, first compound 0.316 µM
[22] = second compound 3.16 µM, first compound 1 µM
[23] = second compound 3.16 µM, first compound 3.16 µM
[24] = second compound 3.16 µM, first compound 10 µM
[25] = second compound 10 µM, first compound 0.0316 µM
[26] = second compound 10 µM, first compound 0.1 µM
[27] = second compound 10 µM, first compound 0.316 µM
[28] = second compound 10 µM, first compound 1 µM
[29] = second compound 10 µM, first compound 3.16 µM
[30] = second compound 10 µM, first compound 10 µM
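Note: seven day compound exposure before luminescent viability read.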
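Throughout, for viability, T/C: 100% = DMSO vehicle control wells.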

CC1(C)CCC(CN2CCN(c3ccc(C(=O)NS(=O)(=O)c4ccc(NCC5CCOCC5)c([N+](=O)[O-])c4)c(Oc4cnc5[nH]ccc5c4)c3)CC2)=C(c2ccc(Cl)cc2)C1 + NC1CC1c1ccc(-c2cccc(O)c2)cc1
IC50 (second compound 0.1 µM): 1860 nM | IC50 (second compound 0.316 µM): 1750 nM | IC50 (second compound 1 µM): 1750 nM | IC50 (second compound 3.16 µM): 1390 nM | IC50 (second compound 10 µM): 958 nM | viability, T/C [1]: 75.5% | viability, T/C [2]: 92.6% | viability, T/C [3]: 81.9% | viability, T/C [4]: 82.8% | viability, T/C [5]: 22.1% | viability, T/C [6]: 0.22% | viability, T/C [7]: 72.5% | viability, T/C [8]: 79.7% | viability, T/C [9]: 74.5% | viability, T/C [10]: 78.2% | viability, T/C [11]: 22.5% | viability, T/C [12]: 0.21% | viability, T/C [13]: 67.8% | viability, T/C [14]: 68.3% | viability, T/C [15]: 71.7% | viability, T/C [16]: 78% | viability, T/C [17]: 27.1% | viability, T/C [18]: 0.27% | viability, T/C [19]: 62.4% | viability, T/C [20]: 59% | viability, T/C [21]: 58.3% | viability, T/C [22]: 65.6% | viability, T/C [23]: 21.6% | viability, T/C [24]: 0.19% | viability, T/C [25]: 49.8% | viability, T/C [26]: 58.4% | viability, T/C [27]: 52.4% | viability, T/C [28]: 49.9% | viability, T/C [29]: 12.1% | viability, T/C [30]: 0.19%

CC1COCCN1c1cc(C2(S(C)(=N)=O)CC2)nc(-c2ccnc3[nH]ccc23)n1 (stereo not given) + NC1CC1c1ccc(-c2cccc(O)c2)cc1
IC50 (second compound 0.1 µM): 368 nM | IC50 (second compound 0.316 µM): 318 nM | IC50 (second compound 1 µM): 293 nM | IC50 (second compound 3.16 µM): 253 nM | IC50 (second compound 10 µM): 104 nM | viability, T/C [1]: 88.3% | viability, T/C [2]: 82% | viability, T/C [3]: 51% | viability, T/C [4]: 28.8% | viability, T/C [5]: 15.2% | viability, T/C [6]: 11.4% | viability, T/C [7]: 66.8% | viability, T/C [8]: 58.8% | viability, T/C [9]: 51.8% | viability, T/C [10]: 26.5% | viability, T/C [11]: 15.4% | viability, T/C [12]: 11.4% | viability, T/C [13]: 63.1% | viability, T/C [14]: 61.6% | viability, T/C [15]: 48.9% | viability, T/C [16]: 25.5% | viability, T/C [17]: 13.2% | viability, T/C [18]: 11.5% | viability, T/C [19]: 59.4% | viability, T/C [20]: 63.6% | viability, T/C [21]: 46.3% | viability, T/C [22]: 23.2% | viability, T/C [23]: 13.7% | viability, T/C [24]: 11.8% | viability, T/C [25]: 50.9% | viability, T/C [26]: 53.3% | viability, T/C [27]: 39.6% | viability, T/C [28]: 27.1% | viability, T/C [29]: 12.2% | viability, T/C [30]: 11.4%
